Experiments:
[1] = tested on: LPS-induced NF-κB activity in THP1-Blue cells; experiment: Inhibition of LPS-induced NF-κB transcriptional activity, alkaline phosphatase reporter, THP1-Blue cells; assay type: cell-based, human; conditions: for IC50: LPS-induced NF-κB activity, human THP1-Blue cells, N.A. = no activity at 50 µM; for Inhibition of LPS-induced NF-κB activity (in words): THP1-Blue cells; for Observed class for inhibition of NF-κB activity: experimentally observed, Active or N.A.
Procedure: (§1) Our studies included 175 compounds that were previously synthesized and characterized at NEUROFARBA, Pharmaceutical and Nutraceutical Section, University of Florence, Italy. We previously evaluated the FPR1/FPR2 agonist activity of these compounds by evaluating their ability to induce Ca^2+ mobilization in FPR-transfected HL60 cells and human neutrophils. […] All test compounds were dissolved in DMSO at stock concentrations of 10 mM and stored at −20 °C. For primary screening assays (analysis of NF-κB activation, IL-6 production, and cytotoxicity), the following final concentrations of the compounds were used: 3.125, 6.25, 12.5, 25, and 50 µM; the final concentration of DMSO was 1% in all samples.
The activation of NF-κB was measured using an alkaline phosphatase reporter assay in human monocytic THP1-Blue cells stably transfected with a secreted embryonic alkaline phosphatase gene that is under the control of a promoter inducible by the NF-κB. The THP1-Blue cells (2 × 10^5 cells/well) were pretreated with the test compound or DMSO for 30 min, followed by an addition of 250 ng/mL LPS for 24 h. Alkaline phosphatase activity was determined in cell supernatants using a QUANTI-Blue mix (InvivoGen) and measured at 655 nm and compared with positive control samples (LPS).

[2] = Cytotoxicity, CellTiter-Glo, THP1-Blue cells; assay type: cell-based, human; conditions: human, THP1-Blue cells
Procedure: as §1
(§2) The cytotoxicity was analyzed with a CellTiter-Glo Luminescent Cell Viability Assay Kit from Promega (Madison, WI, USA), according to the manufacturer’s protocol. The luminescent ATP assays are based on a luciferase enzymatic reaction which uses ATP from viable cells to generate photons. For this assay, the cells were incubated with the compounds under investigation for 24 h. After treatment, the cells were equilibrated to room temperature for 30 min, luciferase + luciferin substrate was added, and the samples were analyzed with a Fluoroscan Ascent FL (Thermo Fisher Scientific, Waltham, MA, USA). The IC50 values were calculated by plotting the percentage inhibition against the logarithm of the inhibitor concentration (at least five points).

[3] = tested on: LPS-induced IL-6 production in MonoMac-6 cells; experiment: Inhibition of LPS-induced IL-6 production in MonoMac-6 cells (ELISA); assay type: cell-based, human; conditions: for IC50: Homo sapiens, MONO-MAC-6, read-out: Inhibition of IL-6 Production IC50 in MonoMac-6 Cells; for Inhibition of LPS-induced IL-6 production (in words): MonoMac-6 cells, 250 ng/mL LPS, 24 h
Procedure: as §1
A human IL-6 ELISA kit (BD Biosciences, San Jose, CA, USA) was used to measure IL-6 production. […] The cells were pretreated with the test compound or DMSO for 30 min, followed by addition of 250 ng/mL LPS for 24 h. The IC50 values for IL-6 production were calculated by plotting the percentage inhibition against the logarithm of the inhibitor concentration (at least five points).

[4] = Cytotoxicity, CellTiter-Glo, MonoMac-6 cells; assay type: cell-based, human; conditions: human, MonoMac-6 cells
Procedure: as §1, §2

[5] = target: T1, FPR1 (Homo sapiens, UniProt P21462); conditions: FPR1-transfected HL-60 cells; agonist activity from Table 1; read-out: Ca2+ Mobilization FPR1 EC50 in HL-60 Cells; cited from earlier work
T1 construct: expressed in transfected cells; host or cells: HL-60 cells (FPR1-HL60)
T1 sequence (P21462 1-350): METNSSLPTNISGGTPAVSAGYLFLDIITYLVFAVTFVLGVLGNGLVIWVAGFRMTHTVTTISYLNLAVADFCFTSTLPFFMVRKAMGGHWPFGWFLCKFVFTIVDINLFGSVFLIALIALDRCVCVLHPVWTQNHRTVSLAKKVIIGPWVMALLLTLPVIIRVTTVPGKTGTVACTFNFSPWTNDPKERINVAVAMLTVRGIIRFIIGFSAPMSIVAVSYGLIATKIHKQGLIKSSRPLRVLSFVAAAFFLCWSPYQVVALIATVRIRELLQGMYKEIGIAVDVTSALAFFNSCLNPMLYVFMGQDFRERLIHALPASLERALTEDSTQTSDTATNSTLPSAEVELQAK

[6] = target: T2, FPR2 (Homo sapiens, UniProt P25090); conditions: FPR2-transfected HL-60 cells; agonist activity from Table 1; read-out: Ca2+ Mobilization FPR2 EC50 in HL-60 Cells; cited from earlier work
T2 construct: expressed in transfected cells; host or cells: HL-60 cells (FPR2-HL60)
T2 sequence (P25090 1-351): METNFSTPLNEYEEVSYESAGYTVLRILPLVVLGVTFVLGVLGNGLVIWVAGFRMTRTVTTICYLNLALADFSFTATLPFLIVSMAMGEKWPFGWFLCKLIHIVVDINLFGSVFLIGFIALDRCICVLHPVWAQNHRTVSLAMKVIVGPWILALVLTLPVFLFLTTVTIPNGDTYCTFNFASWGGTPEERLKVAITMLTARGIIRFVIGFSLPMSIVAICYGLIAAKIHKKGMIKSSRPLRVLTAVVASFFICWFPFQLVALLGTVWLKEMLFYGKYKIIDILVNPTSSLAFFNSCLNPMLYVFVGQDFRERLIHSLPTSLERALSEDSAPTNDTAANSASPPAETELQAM

[7] = N.T. = no cytotoxicity at 50 µM, read-out: Cytotoxicity IC50 in THP1-Blue Cells

Compound	IC50 at 24 h [2, 7] [µM]	IC50 ([1]; Homo sapiens) [µM]	Observed class for inhibition of NF-κB activity [1]	EC50 [5] [µM]	EC50 [6] [µM]	other results
CC(C)c1c(NC(=O)Nc2ccc(Cl)cc2)c(=O)n(-c2ccccc2)n1C [Cmpd43, N-(4-chlorophenyl)-N′-(5-isopropyl-1-methyl-3-oxo-2-phenyl-2,3-dihydro-1H-pyrazol-4-yl)urea, reference compound]	> 50					IC50 [1]: > 50 µM; Inhibition of LPS-induced NF-κB activity (in words) ([1]; 250 ng/mL LPS, 24 h): did not inhibit
COc1cccc(Cc2cc(C)nn(CC(=O)Nc3ccc(Br)cc3)c2=O)c1 [Compound 1]						Inhibition of LPS-induced NF-κB activity (in words) ([1]; 250 ng/mL LPS, 24 h): inactive
COc1cccc(Cc2cc(C)nn(CC(=O)Nc3cccc(Br)c3)c2=O)c1 [Compound 2]	> 50	44.5 ± 2.5	Active			IC50 [3]: 30.7 ± 3.6 µM; Inhibition of LPS-induced IL-6 production (in words) [3]: inhibitors of IL-6 production; IC50 at 24 h [4]: > 50 µM
COc1cccc(Cc2cc(C)nn(CC(=O)Nc3ccc([N+](=O)[O-])cc3)c2=O)c1 [Compound 5]	> 50	46.1 ± 1	Active			
COc1cccc(Cc2cc(C(C)C)nn(CC(=O)Nc3ccc(Br)cc3)c2=O)c1 [Compound 10]	> 50	22 ± 1.7	Active			IC50 [3]: 8.7 ± 1.6 µM; IC50 at 24 h [4]: > 50 µM
COc1cccc(Cc2cc(C)nn(CC(=O)Nc3ccc(F)cc3)c2=O)c1 [Compound 15]	> 50	33.6 ± 2.1	Active			
COc1ccc(-c2cc(C)nn(CC(=O)Nc3ccc(Br)cc3)c2=O)cc1 [Compound 19]						Inhibition of LPS-induced NF-κB activity (in words) ([1]; 250 ng/mL LPS, 24 h): inactive
Cc1cc(Cc2cccc(Cl)c2)c(=O)n(CC(=O)Nc2ccc(I)cc2)n1 [Compound 23]	> 50	7.1 ± 2	Active			IC50 [3]: 13.1 ± 0.3 µM; IC50 at 24 h [4]: > 50 µM
Cc1cc(Cc2ccccc2)c(=O)n(CC(=O)Nc2ccc(Br)cc2)n1 [Compound 30]	> 50	28.4 ± 5.7	Active			
COc1ccc(Cc2cc(-c3ccc(F)cc3)nn(CC(=O)Nc3ccc(Br)cc3)c2=O)cc1 [Compound 49]	> 50	34.5 ± 2.1	Active	> 50	> 50	
COc1ccc(N(c2ccc(OC)cc2)c2cc(C)nn(CC(=O)Nc3ccc(Br)cc3)c2=O)cc1 [Compound 50]	> 50	32.8 ± 0.7	Active	> 50	> 50	
Cc1cc(Cc2cccc(F)c2)c(=O)n(CC(=O)Nc2ccc(Br)cc2)n1 [Compound 64]	> 50	27.9 ± 2.1	Active			
Cc1cc(Cc2ccc(C(F)(F)F)cc2)c(=O)n(CC(=O)Nc2ccc(Br)cc2)n1 [Compound 66]	26.4 ± 4.7	31.5 ± 2.2	Active	> 50	> 50	IC50 at 24 h ([2]; 24 h, read-out: Cytotoxicity IC50): 22 to 26 µM
Cc1cc(-c2ccccc2)nn(CC(=O)Nc2ccc(Br)cc2)c1=O [Compound 67]	> 50	30.9 ± 2.3		21.5	10.1	Inhibition of LPS-induced NF-κB activity (in words) ([1]; 250 ng/mL LPS, 24 h): active
CCC(C(=O)Nc1ccc(Br)cc1)n1nc(C)cc(Cc2cccc(OC)c2)c1=O (stereo not shown) [Compound 88]	> 50	39.4 ± 4.2		1.3	2.2	
CCC(C)(C(=O)Nc1ccc(Br)cc1)n1nc(C)cc(Cc2cccc(OC)c2)c1=O (stereo not shown) [Compound 90]	> 50	39.2 ± 6.7		1.5	2.1	
CCCCOc1ccc(-c2c(OC)cnn(Cc3ccc(OC)cc3)c2=O)cc1 [Compound 109]	> 50	31.3 ± 1.6	Active	> 50	> 50	
COc1cccc(Cc2cc(C)nn(CCNC(=O)Nc3ccc(Br)cc3)c2=O)c1 [Compound 113]	> 50	37 ± 0.4	Active			
CC1CC(c2ccccc2)=NN(CC(=O)Nc2ccc(F)cc2)C1=O (stereo not shown) [Compound 122]	> 50	46.3 ± 2.4		> 50	> 50	
CC1CC(c2ccccc2)=NN(CC(=O)Nc2ccc(Br)cc2)C1=O (stereo not shown) [Compound 124]	> 50	42.7 ± 0.3		19.5	10.7	
COc1ccc2c(c1)c(CC(=O)Nc1ccc(Br)cc1)c(C)n2C(=O)c1ccc(Cl)cc1 [Compound 133]						Inhibition of LPS-induced NF-κB activity (in words) ([1]; 250 ng/mL LPS, 24 h): inactive
COc1cccc(Cn2cc(CC(=O)Nc3ccc(Br)cc3)c3ccccc32)c1 [Compound 134]						Inhibition of LPS-induced NF-κB activity (in words) ([1]; 250 ng/mL LPS, 24 h): inactive
COc1cccc(-c2cc(C#N)c(=O)n(CC(=O)Nc3ccc(Br)cc3)c2C)c1 [Compound 141]	> 50	15.3 ± 4.9	Active			IC50 [3]: 24.5 ± 0.8 µM; IC50 at 24 h [4]: > 50 µM
Cc1ccc(-n2ccc(=O)n(CC(=O)Nc3ccc(Br)cc3)c2=O)cc1 [Compound 149]	> 50	43 ± 3.9	Active	13.6	14.9	
COc1ccc(Nc2c(C#N)cnn2CC(=O)Nc2ccc(Br)cc2)cc1 [Compound 156]	> 50	25 ± 0.4	Active	> 50	> 50	
COc1cccc(-c2nn(CC(=O)Nc3ccc(Br)cc3)c(C)c2C#N)c1 [Compound 160]	> 50		Active	8.2	4.8	IC50 [1]: 28.8 ± 2 µM
COc1cccc(Nc2cn(-c3ccccc3)n(CC(=O)Nc3ccc(Br)cc3)c2=O)c1 [Compound 164]	> 50	35.7 ± 1.9	Active	29	> 50	
O=C(Cn1c(-c2ccc(Cl)cc2)csc1=O)Nc1ccc(Br)cc1 [Compound 168]	> 50	43.4 ± 4.2	Active	2.8	2.4	
N-formyl-Met-Leu-Phe [fMLF, reference compound]						Inhibition of LPS-induced NF-κB activity (in words) ([1]; peptide at 5 nM): did not inhibit; Inhibition of LPS-induced IL-6 production (in words) [3]: did not affect
